Laboratory results from patent US9073821B2, “Hydroxamic acid derivative” (priority 2010, dated 2015).

molecular target: Pseudomonas aeruginosa LpxC enzyme (Pseudomonas aeruginosa (strain ATCC 15692 / DSM 22644 / CIP 104116 / JCM 14847 / LMG 12228 / 1C / PRS 101 / PAO1), UniProt P47205); assay: biochemical; format: biochemical; settings: inhibitory activity on Pseudomonas aeruginosa LpxC enzyme, class symbols A/B/C; read-out: Enzyme inhibitory activity

`CNC(=O)[C@@](C)(C(=O)NO)N(C)C(=O)c1ccc(C#Cc2ccc(CCN3CCCOCC3)cc2)cc1` [Compound 438, (2S)-N-hydroxy-N′,2-dimethyl-2-{methyl[4-({4-[2-(1,4-oxazepan-4-yl)ethyl]phenyl}ethynyl)benzoyl]amino}propanediamide] and `CNC(=O)C(C(=O)NO)N(C)C(=O)c1ccc(C#Cc2ccc(OCCCN3CCOCC3)cc2)cc1` (centres unmarked) [Compound 465, N-hydroxy-N′-methyl-2-(methyl {[4-({4-[3-(morpholin-4-yl)propoxy]phenyl}ethynyl)phenyl]carbonyl}amino)propanediamide] cannot be ordered by IC50: < 10 nM for the first, < 10 nM for the second.

`CNC(=O)C(C(=O)NO)N(C)C(=O)c1ccc(-c2ccccc2)s1` (centres unmarked) [Compound 442, N-hydroxy-N′-methyl-2-{methyl[(5-phenylthiophen-2-yl)carbonyl]amino}propanediamide] and `CNC(=O)C(C(=O)NO)N(C)C(=O)c1ccc(Oc2ccccc2)cc1` (centres unmarked) [Compound 443, N-hydroxy-N′-methyl-2-{methyl[(4-phenoxyphenyl)carbonyl]amino}propanediamide] cannot be ordered by IC50: > 100 nM for the first, > 100 nM for the second.

`CNC(=O)C(C(=O)NO)N(C)C(=O)c1ccc(OC2C=CCCC2)cc1` (centres unmarked) [Compound 444, 2-[{[4-(cyclohex-2-en-1-yloxy)phenyl]carbonyl}(methyl)amino]-N-hydroxy-N′-methylpropanediamide] and `CNC(=O)C(C(=O)NO)N(C)C(=O)c1ccc(OCc2ccccc2)cc1` (centres unmarked) [Compound 454, 2-[{[4-(benzyloxy)phenyl]carbonyl}(methyl)amino]-N-hydroxy-N′-methylpropanediamide] fall in the same range of IC50: 10 to 100 nM for the first, 10 to 100 nM for the second.

First: CNC(=O)C(C(=O)NO)N(C)C(=O)c1ccc(Cc2ccccc2)cc1 (centres unmarked) [Compound 445, 2-{[(4-benzylphenyl)carbonyl](methyl)amino}-N-hydroxy-N′-methylpropanediamide]
Second: CNC(=O)C(C(=O)NO)N(C)C(=O)c1ccc(OCC#Cc2ccccc2)cc1 (centres unmarked) [Compound 453, N-hydroxy-N′-methyl-2-[methyl({4-[(3-phenylprop-2-yn-1-yl)oxy]phenyl}carbonyl)amino]propanediamide]
The IC50 of the first is higher: > 100 nM for the first, 10 to 100 nM for the second. The second is the more potent here.

`CNC(=O)C(C(=O)NO)N(C)C(=O)c1ccc(-c2cncc(C(F)(F)F)c2)cc1` (centres unmarked) [Compound 446, N-hydroxy-N′-methyl-2-[methyl({4-[5-(trifluoromethyl)pyridin-3-yl]phenyl}carbonyl)amino]propanediamide] and `CNC(=O)C(C(=O)NO)N(C)C(=O)c1ccc(-c2cncc(OC)c2)cc1` (centres unmarked) [Compound 447, N-hydroxy-2-[{[4-(5-methoxypyridin-3-yl)phenyl]carbonyl}(methyl)amino]-N′-methylpropanediamide] cannot be ordered by IC50: > 100 nM for the first, > 100 nM for the second.

Compared with `CNC(=O)C(C(=O)NO)N(C)C(=O)c1ccc(-c2ccncc2F)cc1` (centres unmarked) [Compound 448, 2-[{[4-(3-fluoropyridin-4-yl)phenyl]carbonyl}(methyl)amino]-N-hydroxy-N′-methylpropanediamide], `CNC(=O)C(C(=O)NO)N(C)C(=O)c1ccc(-c2ccc(C)nc2)cc1` (centres unmarked) [Compound 450, N-hydroxy-N′-methyl-2-(methyl {[4-(6-methylpyridin-3-yl)phenyl]carbonyl}amino)propanediamide] is higher in IC50: 10 to 100 nM for the first, > 100 nM for the second.

Compared with `CNC(=O)C(C(=O)NO)N(C)C(=O)c1ccc(-c2ccc(OC)nc2)cc1` (centres unmarked) [Compound 449, N-hydroxy-2-[{[4-(6-methoxypyridin-3-yl)phenyl]carbonyl}(methyl)amino]-N′-methylpropanediamide], `CCCOc1ccc(-c2ccc(C(=O)N(C)C(C(=O)NC)C(=O)NO)cc2)cn1` (centres unmarked) [Compound 467, N-hydroxy-N′-methyl-2-(methyl {[4-(6-propoxypyridin-3-yl)phenyl]carbonyl}amino)propanediamide] is lower in IC50: 10 to 100 nM for the first, < 10 nM for the second.

First: CNC(=O)C(C(=O)NO)N(C)C(=O)c1ccc(-c2ccnc(C)c2)cc1 (centres unmarked) [Compound 451, N-hydroxy-N′-methyl-2-(methyl {[4-(2-methylpyridin-4-yl)phenyl]carbonyl}amino)propanediamide]
Second: CNC(=O)C(C(=O)NO)N(C)C(=O)c1ccc(-c2cc(C)ccn2)cc1 (centres unmarked) [Compound 452, N-hydroxy-N′-methyl-2-(methyl {[4-(4-methylpyridin-2-yl)phenyl]carbonyl}amino)propanediamide]
The IC50 of the first is lower: 10 to 100 nM for the first, > 100 nM for the second. The first is the more potent here.

Compared with `CNC(=O)C(C(=O)NO)N(C)C(=O)c1ccc(C#Cc2ccccc2)cn1` (centres unmarked) [Compound 455, N-hydroxy-N′-methyl-2-(methyl {[5-(phenylethynyl)pyridin-2-yl]carbonyl}amino)propanediamide], `CNC(=O)C(C(=O)NO)N(C)C(=O)c1ccc(C#Cc2ccnc(C)c2)cc1` (centres unmarked) [Compound 464, N-hydroxy-N′-methyl-2-[methyl({4-[(2-methylpyridin-4-yl)ethynyl]phenyl}carbonyl)amino]propanediamide] is lower in IC50: > 100 nM for the first, 10 to 100 nM for the second.

`CNC(=O)C(C(=O)NO)N(C)C(=O)c1cnc(-c2ccc(OC)cc2)c(F)c1` (centres unmarked) [Compound 457, 2-[{[5-fluoro-6-(4-methoxyphenyl)pyridin-3-yl]carbonyl}(methyl)amino]-N-hydroxy-N′-methylpropanediamide] and `CNC(=O)C(C(=O)NO)N(C)C(=O)c1cnc(-c2ccc3c(c2)OCO3)c(F)c1` (centres unmarked) [Compound 458, 2-[{[6-(1,3-benzodioxol-5-yl)-5-fluoropyridin-3-yl]carbonyl}(methyl)amino]-N-hydroxy-N′-methylpropanediamide] fall in the same range of IC50: 10 to 100 nM for the first, 10 to 100 nM for the second.

First: CNC(=O)C(C(=O)NO)N(C)C(=O)c1ccc(-c2ccc(C)cc2F)c(F)c1 (centres unmarked) [Compound 460, 2-{[(2,2′-difluoro-4′-methylbiphenyl-4-yl)carbonyl](methyl)amino}-N-hydroxy-N′-methylpropanediamide]
Second: CNC(=O)C(C(=O)NO)N(C)C(=O)c1ccc(-c2ccc(SC)nc2)cc1 (centres unmarked) [Compound 469, N-hydroxy-N′-methyl-2-[methyl({4-[6-(methylsulfanyl)pyridin-3-yl]phenyl}carbonyl)amino]propanediamide]
The IC50 of the first is lower: < 10 nM for the first, 10 to 100 nM for the second. The first is the more potent here.

First: CNC(=O)C(C(=O)NO)N(C)C(=O)c1ccc(C#Cc2ccoc2)cc1 (centres unmarked) [Compound 461, 2-[{[4-(furan-3-ylethynyl)phenyl]carbonyl}(methyl)amino]-N-hydroxy-N′-methylpropanediamide]
Second: CNC(=O)C(C(=O)NO)N(C)C(=O)c1ccc(C#CC#Cc2ccoc2)cc1 (centres unmarked) [Compound 484, 2-[({4-[4-(furan-3-yl)buta-1,3-diyn-1-yl]phenyl}carbonyl)(methyl)amino]-N-hydroxy-N′-methylpropanediamide]
The IC50 of the first is higher: 10 to 100 nM for the first, < 10 nM for the second. The second is the more potent here.

First: CNC(=O)C(C(=O)NO)N(C)C(=O)c1ccc(-c2ccc(OCc3ccccc3)nc2)cc1 (centres unmarked) [Compound 468, 2-[({4-[6-(benzyloxy)pyridin-3-yl]phenyl}carbonyl)(methyl)amino]-N-hydroxy-N′-methylpropanediamide]
Second: CCCCc1ccc(-c2ccc(C(=O)N(C)C(C(=O)NC)C(=O)NO)cc2)cn1 (centres unmarked) [Compound 474, 2-[{[4-(6-butylpyridin-3-yl)phenyl]carbonyl}(methyl)amino]-N-hydroxy-N′-methylpropanediamide]
The IC50 of the first is lower: < 10 nM for the first, 10 to 100 nM for the second.

First: CNC(=O)C(C(=O)NO)N(C)C(=O)c1ccc(C#Cc2ccc(N3CCN(C)CC3)cc2)cc1 (centres unmarked) [Compound 473, N-hydroxy-N′-methyl-2-{methyl[(4-{[4-(4-methylpiperazin-1-yl)phenyl]ethynyl}phenyl)carbonyl]amino}propanediamide]
Second: CNC(=O)C(C(=O)NO)N(C)C(=O)c1ccc(C#CC#Cc2ccc(CNC3CC3)cc2)cc1 (centres unmarked) [Compound 476, 2-[{[4-(4-{4-[(cyclopropylamino)methyl]phenyl}buta-1,3-diyn-1-yl)phenyl]carbonyl}(methyl)amino]-N-hydroxy-N′-methylpropanediamide]
The IC50 of the first is higher: 10 to 100 nM for the first, < 10 nM for the second.

First: CCCCCNc1ccc(-c2ccc(C(=O)N(C)C(C(=O)NC)C(=O)NO)cc2)cn1 (centres unmarked) [Compound 475, N-hydroxy-N′-methyl-2-[methyl({4-[6-(pentylamino)pyridin-3-yl]phenyl}carbonyl)amino]propanediamide]
Second: CNC(=O)C(C(=O)NO)N(C)C(=O)c1ccc(C#C/C=C/c2ccc(OC)nc2)cc1 (centres unmarked) [Compound 478, N-hydroxy-2-[({4-[(3E)-4-(6-methoxypyridin-3-yl)but-3-en-1-yn-1-yl]phenyl}carbonyl)(methyl)amino]-N′-methylpropanediamide]
The IC50 of the first is higher: 10 to 100 nM for the first, < 10 nM for the second.

`CNC(=O)C(C(=O)NO)N(C)C(=O)c1ccc(-c2ccc(-c3ccc(CN4CCOCC4)o3)cc2)cc1` (centres unmarked) [Compound 479, N-hydroxy-N′-methyl-2-[methyl({4′-[5-(morpholin-4-ylmethyl)furan-2-yl]biphenyl-4-yl}carbonyl)amino]propanediamide] and `CNC(=O)C(C(=O)NO)N(C)C(=O)c1ccc(C#Cc2coc(CN3CCOCC3)c2)cc1` (centres unmarked) [Compound 483, N-hydroxy-N′-methyl-2-{methyl[(4-{[5-(morpholin-4-ylmethyl)furan-3-yl]ethynyl}phenyl)carbonyl]amino}propanediamide] cannot be ordered by IC50: < 10 nM for the first, < 10 nM for the second.

`CNC(=O)C(C(=O)NO)N(C)C(=O)c1ccc(C#Cc2ccc(CNCc3cc(C)on3)cc2)cc1` (centres unmarked) [Compound 482, N-hydroxy-N′-methyl-2-{methyl[(4-{[4-({[(5-methyl-1,2-oxazol-3-yl)methyl]amino}methyl)phenyl]ethynyl}phenyl)carbonyl]amino}propanediamide] and `CNC(=O)C(C(=O)NO)N(C)C(=O)c1ccc(C#Cc2ccc(CNCc3ncco3)cc2)cc1` (centres unmarked) [Compound 485, N-hydroxy-N′-methyl-2-[methyl({4-[(4-{[(1,3-oxazol-2-ylmethyl)amino]methyl}phenyl)ethynyl]phenyl}carbonyl)amino]propanediamide] cannot be ordered by IC50: < 10 nM for the first, < 10 nM for the second.

In the case of `CNC(=O)C(C(=O)NO)N(C)C(=O)c1ccc(C#Cc2coc(CNCC(F)(F)F)c2)cc1` (centres unmarked) [Compound 488, N-hydroxy-N′-methyl-2-[methyl({4-[(5-{[(2,2,2-trifluoroethyl)amino]methyl}furan-3-yl)ethynyl]phenyl}carbonyl)amino]propanediamide], the IC50 is reported as < 10 nM.
